In publication PMC12028158, “Synthesis and In Vitro Evaluation of the Anticancer Effect of Novel Phosphonium Vindoline Derivatives” (International Journal of Molecular Sciences, 2025):

Columns and labels:
Assay type in all cases: cell-based
UO-31 = assay: NCI60 one-dose screen; settings: Homo sapiens; UO-31, 10 μM, one-dose; read-out: Growth percent
SF-268 = assay: NCI60 one-dose screen; settings: Homo sapiens; SF-268, 10 μM, one-dose; read-out: Growth percent
NCI-H23 = assay: NCI60 five-dose screen; settings: Homo sapiens; NCI-H23, Non-small Cell Lung Cancer, five-dose; read-out: GI50
T-47D = assay: NCI60 one-dose screen; settings: Homo sapiens, T47D; T-47D, 10 μM, one-dose; read-out: Growth percent
COLO 205 = assay: NCI60 five-dose screen; settings: Homo sapiens, COLO 205, COLO 205, Colon Cancer, five-dose; read-out: GI50
UACC-257 = assay: NCI60 five-dose screen; settings: Homo sapiens, UACC-257, UACC-257, Melanoma, five-dose; read-out: GI50
OVCAR-4 = assay: NCI60 one-dose screen; settings: Homo sapiens; OVCAR-4, 10 μM, one-dose; read-out: Growth percent
A498 [1] = assay: NCI60 one-dose screen; settings: Homo sapiens; A498, 10 μM, one-dose; read-out: Growth percent
MDA-MB-231/ATCC = assay: NCI60 one-dose screen; settings: Homo sapiens; MDA-MB-231/ATCC, 10 μM, one-dose; read-out: Growth percent
IGROV1 = assay: NCI60 one-dose screen; settings: Homo sapiens, IGROV-1; IGROV1, 10 μM, one-dose; read-out: Growth percent
HCT-116 [2] = assay: NCI60 one-dose screen; settings: Homo sapiens; HCT-116, 10 μM, one-dose; read-out: Growth percent
K-562 = assay: NCI60 five-dose screen; settings: Homo sapiens, K562; K-562, Leukemia, five-dose; read-out: GI50
HCC-2998 = assay: NCI60 one-dose screen; settings: Homo sapiens; HCC-2998, 10 μM, one-dose; read-out: Growth percent
[3] = test system: 60 human tumor cell lines (NCI60); assay: NCI60 one-dose screen, overall mean; settings: Homo sapiens; mean over 60 cell lines, 10 μM, one-dose; read-out: Mean growth percent
MDA-MB-468 = assay: NCI60 five-dose screen; settings: Homo sapiens, MDA-MB-468, MDA-MB-468, Breast Cancer, five-dose; read-out: GI50
LOX IMVI = assay: NCI60 five-dose screen; settings: Homo sapiens, Melanoma, five-dose, read-out: GI50
HT29 = assay: NCI60 one-dose screen; settings: Homo sapiens, HT-29; HT29, 10 μM, one-dose; read-out: Growth percent
SF-539 = assay: NCI60 one-dose screen; settings: Homo sapiens; SF-539, 10 μM, one-dose; read-out: Growth percent
NCI-H522 = assay: NCI60 five-dose screen; settings: Homo sapiens; NCI-H522, Non-small Cell Lung Cancer, five-dose; read-out: GI50
SF-295 = assay: NCI60 five-dose screen; settings: Homo sapiens; SF-295, CNS Cancer, five-dose; read-out: GI50
Prostate Cancer panel = assay: NCI60 five-dose screen, panel mean; settings: Homo sapiens; mean over Prostate Cancer panel; read-out: Mean GI50
CCRF-CEM = assay: NCI60 one-dose screen; settings: Homo sapiens, 10 μM, one-dose, read-out: Growth percent
DU-145 = assay: NCI60 five-dose screen; settings: Homo sapiens; DU-145, Prostate Cancer, five-dose; read-out: GI50
NCI-H460 = assay: NCI60 five-dose screen; settings: Homo sapiens; NCI-H460, Non-small Cell Lung Cancer, five-dose; read-out: GI50
UACC-62 = assay: NCI60 five-dose screen; settings: Homo sapiens; UACC-62, Melanoma, five-dose; read-out: GI50
HCT-15 = assay: NCI60 one-dose screen; settings: Homo sapiens; HCT-15, 10 μM, one-dose; read-out: Growth percent
SW-620 [4] = assay: NCI60 one-dose screen; settings: Homo sapiens; SW-620, 10 μM, one-dose; read-out: Growth percent
HS 578T = assay: NCI60 one-dose screen; settings: Homo sapiens; HS 578T, 10 μM, one-dose; read-out: Growth percent
SR = assay: NCI60 one-dose screen; settings: Homo sapiens, 10 μM, one-dose, read-out: Growth percent
SW-620 [5] = assay: NCI60 five-dose screen; settings: Homo sapiens; SW-620, Colon Cancer, five-dose; read-out: GI50
NCI-H322M = assay: NCI60 five-dose screen; settings: Homo sapiens, Non-small Cell Lung Cancer, five-dose, read-out: GI50
SK-MEL-28 = assay: NCI60 one-dose screen; settings: Homo sapiens; SK-MEL-28, 10 μM, one-dose; read-out: Growth percent
RPMI-8226 = assay: NCI60 one-dose screen; settings: Homo sapiens; RPMI-8226, 10 μM, one-dose; read-out: Growth percent
HOP-62 = assay: NCI60 five-dose screen; settings: Homo sapiens; HOP-62, Non-small Cell Lung Cancer, five-dose; read-out: GI50
SK-OV-3 = assay: NCI60 five-dose screen; settings: Homo sapiens; SK-OV-3, Ovarian Cancer, five-dose; read-out: GI50
SK-MEL-5 = assay: NCI60 one-dose screen; settings: Homo sapiens; SK-MEL-5, 10 μM, one-dose; read-out: Growth percent
SNB-75 = assay: NCI60 one-dose screen; settings: Homo sapiens; SNB-75, 10 μM, one-dose; read-out: Growth percent
MALME-3M = assay: NCI60 one-dose screen; settings: Homo sapiens; MALME-3M, 10 μM, one-dose; read-out: Growth percent
M14 = assay: NCI60 one-dose screen; settings: Homo sapiens; M14, 10 μM, one-dose; read-out: Growth percent
A498 [6] = assay: NCI60 five-dose screen; settings: Homo sapiens; A498, Renal Cancer, five-dose; read-out: GI50
HCT-116 [7] = assay: NCI60 five-dose screen; settings: Homo sapiens; HCT-116, Colon Cancer, five-dose; read-out: GI50
KM12 = assay: NCI60 five-dose screen; settings: Homo sapiens, KM12, KM12, Colon Cancer, five-dose; read-out: GI50
NCI/ADR-RES = assay: NCI60 one-dose screen; settings: Homo sapiens, 10 μM, one-dose, read-out: Growth percent
OVCAR-3 = assay: NCI60 five-dose screen; settings: Homo sapiens; OVCAR-3, Ovarian Cancer, five-dose; read-out: GI50

CC[C@]12C=CCN3CC[C@@]4(c5ccc(OC)cc5N(C)[C@H]4[C@@](O)(C(=O)OC)[C@@H]1OC(=O)CCC[P+](c1ccccc1)(c1ccccc1)c1ccccc1)[C@@H]32 [compound 3, reference compound]
activity at 10 µM (UO-31): 80% | activity at 10 µM (SF-268): 19.2% | GI50 (NCI-H23): 971 nM | activity at 10 µM (T-47D): 1.08% | GI50 (COLO 205): 161 nM | GI50 (UACC-257): 240 nM | activity at 10 µM (OVCAR-4): -3.58% | activity at 10 µM (A498 [1]): 124% | activity at 10 µM (MDA-MB-231/ATCC): 1.29% | activity at 10 µM (IGROV1): -0.06% | activity at 10 µM (HCT-116 [2]): 8.72% | GI50 (K-562): 360 nM | activity at 10 µM (HCC-2998): -22.5% | activity at 10 µM [3]: 3.13% | GI50 (MDA-MB-468): 126 nM | GI50 (LOX IMVI): 858 nM | activity at 10 µM (HT29): 2.42% | activity at 10 µM (SF-539): 16.2% | GI50 (NCI-H522): 216 nM | GI50 (SF-295): 1450 nM | GI50 (Prostate Cancer panel): 640 nM | activity at 10 µM (CCRF-CEM): 11.2% | GI50 (DU-145): 1070 nM | GI50 (NCI-H460): 1220 nM | GI50 (UACC-62): 222 nM | activity at 10 µM (HCT-15): 101% | activity at 10 µM (SW-620 [4]): 17.4% | activity at 10 µM (HS 578T): 25.5% | activity at 10 µM (SR): 9.57% | GI50 (SW-620 [5]): 1200 nM | GI50 (NCI-H322M): 2330 nM | activity at 10 µM (SK-MEL-28): 20.9% | activity at 10 µM (RPMI-8226): -12.7% | GI50 (HOP-62): 1370 nM | GI50 (SK-OV-3): 894 nM | activity at 10 µM (SK-MEL-5): -91.5% | activity at 10 µM (SNB-75): -4.39% | activity at 10 µM (MALME-3M): -12.4% | activity at 10 µM (M14): 17.7% | GI50 (A498 [6]): 1710 nM | GI50 (HCT-116 [7]): 965 nM | GI50 (KM12): 297 nM | activity at 10 µM (NCI/ADR-RES): 100% | GI50 (OVCAR-3): 369 nM
